# What was measured:
# [1] = tested on: MCF7; experiment: Antiproliferative activity in human MCF7 cells assessed as inhibition of cell proliferation; format: functional, cell-based
# [2] = tested on: MDA-MB-231; experiment: Antiproliferative activity in human MDA-MB-231 cells assessed as inhibition of cell proliferation; format: functional, cell-based
# [3] = tested on: Panel NCI-60 (60 carcinoma cell lines); experiment: Growth inhibition of human NCI60 cells incubated for 48 hrs by SRB assay; format: functional, cell-based
# [4] = tested on: NCI-H460; experiment: Antiproliferative activity in human NCI-H460 cells incubated for 72 hrs by MTT assay; format: functional, cell-based; conditions: NCI-H460, 72 h
# [5] = species on record: Homo sapiens; experiment: Inhibition of PI3K in human A549 cell lysates assessed as remaining enzyme activity at 1 uM pre-incubated for 5 mins before [gamma-32P]ATP addition and further incubated for 20 mins by TLC and autoradiography relative to untreated control
# [6] = Inhibition of rhodamine-labeled purified porcine brain tubulin polymerization in presence of GTP incubated for 30 mins by epifluorescence microscopy; set-up: species or system Sus scrofa
# [7] = tested on: HepG2; experiment: Anticancer activity against human HepG2 cells incubated for 48 hrs by SRB assay; format: functional, cell-based; conditions: HepG2, 48 h
# [8] = tested on: MCF7; experiment: Anticancer activity against human MCF7 cells incubated for 48 hrs by SRB assay; format: functional, cell-based; conditions: MCF7, 48 h
# [9] = tested on: SK-BR-3; experiment: Antiproliferative activity in human SK-BR-3 cells assessed as inhibition of cell proliferation by SRB/MTT assay; format: functional, cell-based
# [10] = tested on: BT-474; experiment: Antiproliferative activity in human BT474 cells assessed as inhibition of cell proliferation by SRB/MTT assay; format: functional, cell-based
# [11] = tested on: A549; experiment: Antiproliferative activity in human A549 cells assessed as inhibition of cell proliferation by SRB/MTT assay; format: functional, cell-based
# [12] = tested on: K562; experiment: Antiproliferative activity in human K562 cells assessed as inhibition of cell proliferation by SRB/MTT assay; format: functional, cell-based
# [13] = tested on: HCT-116; experiment: Antiproliferative activity in human HCT116 cells assessed as inhibition of cell proliferation by SRB/MTT assay; format: functional, cell-based
# [14] = tested on: A549; experiment: Antiproliferative activity in human A549 cells assessed as inhibition of cell proliferation by MTT assay; format: functional, cell-based
# [15] = tested on: HT-29; experiment: Anticancer activity against human HT-29 cells incubated for 48 hrs by MTT assay; format: functional, cell-based; conditions: HT-29, 48 h
# [16] = tested on: MCF7; experiment: Anticancer activity against human MCF7 cells incubated for 48 hrs by MTT assay; format: functional, cell-based; conditions: MCF7, 48 h
# [17] = tested on: MDA-MB-231; experiment: Anticancer activity against human MDA-MB-231 cells incubated for 48 hrs by MTT assay; format: functional, cell-based; conditions: MDA-MB-231, 48 h
# [18] = tested on: HGC-27; experiment: Anticancer activity against human HGC27 cells incubated for 48 hrs by MTT assay; format: functional, cell-based; conditions: HGC-27, 48 h
# [19] = Inhibition of starfish oocytes CDK1/cyclin B using histone H1 and [gamma-33P]ATP incubated fro 30 mins by scintillation counting analysis; set-up: species or system Asteroidea
# [20] = target: Cyclin-dependent kinase 5/CDK5 activator 1 (Homo sapiens, UniProt Q00535); experiment: Inhibition of human recombinant CDK5/p25 using histone H1 and [gamma-33P]ATP incubated fro 30 mins by scintillation counting analysis; format: protein-complex assay
# [21] = target: Cyclin-dependent kinase 7/ cyclin H (Homo sapiens, UniProt P50613); experiment: Inhibition of human recombinant CDK7/cyclin H using histone H1 and [gamma-33P]ATP incubated fro 30 mins by scintillation counting analysis; format: protein-complex assay
# [22] = target: CDK9/cyclin T1 (Homo sapiens, UniProt P50750); experiment: Inhibition of human recombinant CDK9/cyclin T expressed in insect cells using pRb fragment (773 to 928 amino acids) and [gamma-33P]ATP incubated fro 30 mins by scintillation counting analysis
# [23] = tested on: K562; experiment: Cytotoxicity in human K562 cells assessed as reduction in cell viability incubated for 72 hrs by MTT assay; format: functional, cell-based; conditions: K562, 72 h
# [24] = tested on: PC-3; experiment: Cytotoxicity in human PC3 cells assessed as reduction in cell viability incubated for 72 hrs by MTT assay; format: functional, cell-based; conditions: PC-3, 72 h
# [25] = Cytotoxicity in human HO8910 cells assessed as reduction in cell viability incubated for 72 hrs by MTT assay; format: functional, cell-based; conditions: HO-8910, 72 h
# [26] = target: Ubiquitin-conjugating enzyme E2 B (Homo sapiens, UniProt P63146); experiment: Inhibition of human recombinant Rad6B using ubiquitin and histone H2A and ubiquitin-activating enzyme E1 preincubated for 1 hr before ubiquitin and histone H2A addition by SDS-PAGE and immunoblotting analysis
# [27] = tested on: HT-29; experiment: Antiproliferative activity in human HT-29 cells incubated for 72 hrs by MTT assay; format: functional, cell-based; conditions: HT-29, 72 h
# [28] = tested on: MDA-MB-231; experiment: Antiproliferative activity in human MDA-MB-231 cells incubated for 72 hrs by MTT assay; format: functional, cell-based; conditions: MDA-MB-231, 72 h
# Ubiquitin-conjugating enzyme E2 B, sequence (P63146 whole entry): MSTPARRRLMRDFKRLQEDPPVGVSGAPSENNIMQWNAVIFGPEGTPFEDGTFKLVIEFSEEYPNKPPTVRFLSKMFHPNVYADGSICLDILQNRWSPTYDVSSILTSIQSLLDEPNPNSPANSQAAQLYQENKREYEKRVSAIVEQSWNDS
# Cyclin-dependent kinase 7/ cyclin H, sequence (P51946 whole entry, the tested form may be a part): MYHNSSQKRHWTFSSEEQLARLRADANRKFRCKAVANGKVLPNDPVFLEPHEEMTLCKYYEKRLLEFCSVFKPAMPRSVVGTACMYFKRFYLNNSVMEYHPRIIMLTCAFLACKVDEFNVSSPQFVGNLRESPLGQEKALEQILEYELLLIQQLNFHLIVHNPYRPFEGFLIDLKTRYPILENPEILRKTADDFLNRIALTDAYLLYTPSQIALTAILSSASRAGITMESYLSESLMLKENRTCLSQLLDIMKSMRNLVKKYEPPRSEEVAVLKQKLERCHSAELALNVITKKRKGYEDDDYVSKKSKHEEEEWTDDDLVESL
# Cyclin-dependent kinase 7/ cyclin H, sequence (P50613 whole entry, the tested form may be a part): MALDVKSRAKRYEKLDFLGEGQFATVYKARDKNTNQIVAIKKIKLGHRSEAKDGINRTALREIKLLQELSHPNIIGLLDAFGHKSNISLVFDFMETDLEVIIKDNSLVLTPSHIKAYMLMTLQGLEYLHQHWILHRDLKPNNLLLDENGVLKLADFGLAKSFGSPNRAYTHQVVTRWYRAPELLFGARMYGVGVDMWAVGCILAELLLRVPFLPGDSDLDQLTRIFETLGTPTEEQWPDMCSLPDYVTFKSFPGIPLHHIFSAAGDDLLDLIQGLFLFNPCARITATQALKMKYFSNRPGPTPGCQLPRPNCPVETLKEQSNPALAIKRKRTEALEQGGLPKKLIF
# Cyclin-dependent kinase 5/CDK5 activator 1, sequence (Q00535 whole entry): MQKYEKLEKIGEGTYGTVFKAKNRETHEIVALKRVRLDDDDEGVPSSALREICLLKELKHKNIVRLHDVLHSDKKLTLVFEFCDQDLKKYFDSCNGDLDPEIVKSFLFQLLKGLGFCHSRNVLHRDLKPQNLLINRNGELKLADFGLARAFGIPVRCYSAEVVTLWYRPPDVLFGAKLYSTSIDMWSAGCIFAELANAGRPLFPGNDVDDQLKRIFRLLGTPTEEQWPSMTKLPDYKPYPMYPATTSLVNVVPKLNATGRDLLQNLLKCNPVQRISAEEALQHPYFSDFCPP
# Cyclin-dependent kinase 5/CDK5 activator 1, sequence (Q15078 whole entry, further chain): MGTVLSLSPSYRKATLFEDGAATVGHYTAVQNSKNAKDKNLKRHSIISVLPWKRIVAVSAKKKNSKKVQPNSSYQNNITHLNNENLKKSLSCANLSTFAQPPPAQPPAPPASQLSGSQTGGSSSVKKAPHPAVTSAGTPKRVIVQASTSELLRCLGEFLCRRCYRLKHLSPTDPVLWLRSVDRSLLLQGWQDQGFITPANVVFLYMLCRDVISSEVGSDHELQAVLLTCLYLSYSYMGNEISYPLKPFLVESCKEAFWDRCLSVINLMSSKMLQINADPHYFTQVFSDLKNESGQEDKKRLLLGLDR
# CDK9/cyclin T1, sequence (O60563 whole entry, the tested form may be a part): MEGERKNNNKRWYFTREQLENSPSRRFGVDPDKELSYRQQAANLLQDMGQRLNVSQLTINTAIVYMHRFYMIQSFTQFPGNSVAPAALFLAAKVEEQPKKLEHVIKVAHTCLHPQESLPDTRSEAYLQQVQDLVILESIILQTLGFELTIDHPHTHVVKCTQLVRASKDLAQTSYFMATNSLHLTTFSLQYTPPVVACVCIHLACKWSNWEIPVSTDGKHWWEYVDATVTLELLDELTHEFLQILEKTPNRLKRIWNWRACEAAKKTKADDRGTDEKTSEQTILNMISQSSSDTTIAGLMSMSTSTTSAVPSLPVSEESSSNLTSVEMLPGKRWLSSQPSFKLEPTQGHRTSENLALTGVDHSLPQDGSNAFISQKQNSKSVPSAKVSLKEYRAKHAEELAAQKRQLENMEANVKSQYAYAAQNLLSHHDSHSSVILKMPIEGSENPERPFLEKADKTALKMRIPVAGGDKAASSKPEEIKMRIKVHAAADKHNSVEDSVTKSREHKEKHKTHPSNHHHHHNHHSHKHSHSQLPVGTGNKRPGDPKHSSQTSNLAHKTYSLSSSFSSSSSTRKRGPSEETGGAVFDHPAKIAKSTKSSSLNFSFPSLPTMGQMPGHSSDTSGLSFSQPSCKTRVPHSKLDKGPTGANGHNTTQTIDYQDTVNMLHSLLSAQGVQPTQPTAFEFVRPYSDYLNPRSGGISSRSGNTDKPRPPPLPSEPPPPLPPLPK
# CDK9/cyclin T1, sequence (P50750 whole entry, the tested form may be a part): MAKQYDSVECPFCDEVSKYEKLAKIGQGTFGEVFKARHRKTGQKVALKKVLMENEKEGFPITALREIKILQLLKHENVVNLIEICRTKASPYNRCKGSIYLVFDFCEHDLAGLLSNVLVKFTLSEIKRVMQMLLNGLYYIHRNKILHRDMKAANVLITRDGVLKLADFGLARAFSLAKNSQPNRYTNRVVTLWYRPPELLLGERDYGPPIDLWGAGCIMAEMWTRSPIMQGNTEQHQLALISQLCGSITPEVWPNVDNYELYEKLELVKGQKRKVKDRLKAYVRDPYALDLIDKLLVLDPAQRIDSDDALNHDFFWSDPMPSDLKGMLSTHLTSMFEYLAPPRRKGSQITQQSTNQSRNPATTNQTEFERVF
structure (smiles),measurement,setting,value
COc1nc(Nc2ccc(C)cc2)nc([N+]23CC[N+](CCCl)(CC2)CC3)n1,IC50,[1],7.4 µM
same,IC50,[2],40.3 to 112 µM
COc1nc(N2CCOCC2)nc([N+]23CC[N+](CCCl)(CC2)CC3)n1,IC50,[1],7.4 to 136 µM
same,IC50,[2],40.3 to 112 µM
Nc1nc2nc(-c3ccccc3)nc(-c3ccccc3)n2n1,IC50,[3],0.49 to 100 µM
CCCCNc1nc(OC)nc([N+]23CC[N+](CCCl)(CC2)CC3)n1,IC50,[1],7.4 to 136 µM
same,IC50,[2],40.3 to 112 µM
COc1nc(NCc2ccccc2)nc([N+]23CC[N+](CCCl)(CC2)CC3)n1,IC50,[1],7.4 to 136 µM
same,IC50,[2],40.3 to 112 µM
N#Cc1ccc(Cn2cc(/C=N/Nc3nc(N4CCOCC4)nc(N4CCOCC4)n3)c3ccccc32)cc1,IC50,[4],0.05 µM
FC(F)c1nc2ccccc2n1-c1nc(N2CCOCC2)nc(N2CCOCC2)n1,Activity,[5],4.7%
COc1nc(N2CCCCC2)nc([N+]23CC[N+](CCCl)(CC2)CC3)n1,IC50,[1],7.4 to 136 µM
same,IC50,[2],40.3 to 112 µM
COc1ccc(CNc2nc(NCc3ccc(OC)cc3)c3ncn(C(C)C)c3n2)cc1 [MYOSEVERIN],IC50,[6],3.6 µM
CCCCCCCCCCCCCCCCOC(=O)c1cc(C(=O)OCCCCCCCCCCCCCCCC)cc(-n2cc(-c3nc(-c4cn(-c5cc(C(=O)OCCCCCCCCCCCCCCCC)cc(C(=O)OCCCCCCCCCCCCCCCC)c5)nn4)nc(-c4cn(-c5cc(C(=O)OCCCCCCCCCCCCCCCC)cc(C(=O)OCCCCCCCCCCCCCCCC)c5)nn4)n3)nn2)c1,IC50,[7],3.7 mg/L
same,IC50,[8],2.95 mg/L
COC(=O)[C@H](C)Nc1nc(OC)nc([N+]23CC[N+](CCCl)(CC2)CC3)n1,IC50,[1],7.4 to 136 µM
same,IC50,[2],40.3 to 112 µM
COC(=O)[C@H](Cc1ccccc1)Nc1nc(OC)nc([N+]23CC[N+](CCCl)(CC2)CC3)n1,IC50,[1],7.4 to 136 µM
same,IC50,[2],40.3 to 112 µM
Cc1cc(C)n(-c2nc(N/N=C\c3c[nH]c4ccccc34)nc(Nc3ccc(Br)cc3)n2)n1,IC50,[9],8.9 µM
same,IC50,[10],7.1 µM
same,IC50,[11],7.5 µM
same,IC50,[12],8.6 µM
same,IC50,[13],6.7 µM
Cc1cc(=O)n2c(n1)N=C(N)NC2c1ccco1 (configuration not stated),IC50,[14],6 µM
c1ccc(Nc2nc(Nc3ccc(-c4nc5ccccc5[nH]4)cc3)nc(N3CCOCC3)n2)cc1,IC50,[15],4.8 to 15.1 µM
same,IC50,[16],4.8 to 15.1 µM
same,IC50,[17],4.8 to 15.1 µM
same,IC50,[18],4.8 to 15.1 µM
CC[C@H](CO)Nc1nc(NCc2ccccc2)n2ncc(C(C)C)c2n1,IC50,[19],0.043 to 0.5 µM
same,IC50,[20],0.043 to 0.5 µM
same,IC50,[21],0.043 to 0.5 µM
same,IC50,[22],0.043 to 0.5 µM
Cc1ccc(Nc2nc(-c3ccccc3)nc(N3CCNCC3)n2)cc1,IC50,[23],1.01 µM
same,IC50,[24],2.23 µM
same,IC50,[25],1.06 µM
COc1nc(Nc2ccccc2)nc([N+]23CC[N+](CCCl)(CC2)CC3)n1,IC50,[1],12.3 µM
same,IC50,[2],40.3 to 112 µM
COC(=O)[C@H](CO)Nc1nc(OC)nc([N+]23CC[N+](CCCl)(CC2)CC3)n1,IC50,[1],7.4 to 136 µM
same,IC50,[2],40.3 to 112 µM
Nc1nc(COC(=O)c2ccc([N+](=O)[O-])cc2)nc(Nc2ccccc2)n1,IC50,[26],0.025 µM
O=C(O)CCCc1ccc(N(CCCl)CCCl)cc1 [CHLORAMBUCIL],IC50,[1],29.1 µM
Clc1ccc(Cn2cc(/C=N/Nc3nc(N4CCOCC4)nc(N4CCOCC4)n3)c3ccccc32)cc1Cl,IC50,[4],0.07 µM
C=CCc1cc(C)cc(/C=N/NC(=O)Nc2nc(N3CCOCC3)nc(N3CCOCC3)n2)c1O,IC50,[4],0.75 µM
same,IC50,[27],0.34 µM
same,IC50,[28],0.6 µM

# From ChEMBL document CHEMBL4270508, “1,3,5-Triazines: A promising scaffold for anticancer drugs development” (Eur J Med Chem, 2017)
